The subject of data set [1] is Influenza A virus. The data set can be described thus: microbe, parasite or virus in culture. As to conditions: H1N1, MDCK.
For a further data set, the system named is Influenza B virus. Description: microbe, parasite or virus in culture. As to conditions: MDCK.
The next data set deals with HEL. The conditions noted are these: human, 72 h.
The subject of data set [2] is Human alphaherpesvirus 3. The data set can be described thus: microbe, parasite or virus in culture. The conditions noted are these: Human alphaherpesvirus 3, strain Oka vaccine, HEL.
For data set [3], the system named is Human alphaherpesvirus 3. Description: microbe, parasite or virus in culture. As to conditions: Human alphaherpesvirus 3, 07/1, HEL.
The conditions of data set [4]: cat, crfk, 72 h.
The next data set relates to Human alphaherpesvirus 2. Description: microbe, parasite or virus in culture. As to conditions: Human alphaherpesvirus 2, strain G, HEL.
In a further data set the test system is Felid alphaherpesvirus 1. The data set can be described thus: microbe, parasite or virus in culture. The conditions noted are these: Felid alphaherpesvirus 1, CRFK.
The next data set has as its system Vaccinia virus. The data set can be described thus: microbe, parasite or virus in culture. The conditions noted are these: Orthopoxvirus vaccinia, HEL.
Another data set is described as follows: in vitro. As to conditions: human, HeLa cells.
The subject of data set [5] is Respiratory syncytial virus. The data set can be described thus: microbe, parasite or virus in culture. As to conditions: human respiratory syncytial virus, HeLa.
In data set [6] the test system is Coxsackievirus B4. The data set can be described thus: microbe, parasite or virus in culture. The conditions noted are these: Enterovirus B, Vero.
The subject of data set [7] is Mammalian orthoreovirus 1. The data set can be described thus: microbe, parasite or virus in culture. The conditions noted are these: Mammalian orthoreovirus 1, Vero.
Another data set deals with Sindbis virus. The data set can be described thus: microbe, parasite or virus in culture. The conditions noted are these: Vero.
Data set [8] deals with Human betaherpesvirus 5. Description: microbe, parasite or virus in culture. The conditions noted are these: Human betaherpesvirus 5, AD169, HEL.
For data set [9], the system named is Human betaherpesvirus 5. Description: microbe, parasite or virus in culture. As to conditions: Human betaherpesvirus 5, Davis, HEL.
The test system of a further data set is Human respirovirus 3. Description: microbe, parasite or virus in culture. The conditions noted are these: Human respirovirus 3, Vero.
The test system of a further data set is Punta Toro virus. The data set can be described thus: microbe, parasite or virus in culture. As to conditions: Vero.
The subject of data set [10] is Human alphaherpesvirus 1. Description: microbe, parasite or virus in culture. The conditions noted are these: Human alphaherpesvirus 1, KOS, HEL.
In data set [11] the test system is Human immunodeficiency virus 1. The data set can be described thus: microbe, parasite or virus in culture. As to conditions: Human immunodeficiency virus 1, 3B, CCRF-CEM, 96 h.
The subject of data set [12] is Human immunodeficiency virus 2. The data set can be described thus: microbe, parasite or virus in culture. As to conditions: Human immunodeficiency virus 2, ISOLATE ROD, CCRF-CEM, 96 h.
Data set [13] concerns Influenza A virus. The data set can be described thus: microbe, parasite or virus in culture. As to conditions: H3N2, MDCK.
In the next data set the test system is HeLa. The conditions noted are these: human, 72 h.
Another data set relates to CCRF-CEM. The conditions noted are these: human, 72 h.
The subject of data set [14] is Human alphaherpesvirus 1. The data set can be described thus: microbe, parasite or virus in culture. The conditions noted are these: Human alphaherpesvirus 1, KOS, HEL. This is another data set of the same source.
For data set [15], the system named is Human immunodeficiency virus 1. Description: microbe, parasite or virus in culture. As to conditions: Human immunodeficiency virus 1, LAI, MT2.
Data set [16] deals with Human betaherpesvirus 5. The data set can be described thus: microbe, parasite or virus in culture. As to conditions: Human betaherpesvirus 5, AD169, HFF.
Data set [17] has as its system Vesicular stomatitis virus. The data set can be described thus: microbe, parasite or virus in culture. The conditions noted are these: HEL.
The test system of data set [18] is Vesicular stomatitis virus. The data set can be described thus: microbe, parasite or virus in culture. The conditions noted are these: HeLa.
Data set [19] concerns Coxsackievirus B4. Description: microbe, parasite or virus in culture. The conditions noted are these: Enterovirus B, HeLa.
The next data set deals with Feline coronavirus. The data set can be described thus: microbe, parasite or virus in culture. The conditions noted are these: Alphacoronavirus 1, CRFK.

A value given as a limit tells only on which side of the number the result lay.

The term EC50 denotes the midpoint of the concentration-response curve.

As for `CCOC(=O)C1=C[C@@H](OC(CC)CC)[C@H](NC(C)=O)[C@@H](N)C1` [OSELTAMIVIR], the EC50 came out at 12 µM in the data set on Influenza A virus [1] and 23.5 µM with Influenza B virus.

`CCOCCOCCOCCOCCOCCOCCOP(=O)(O)COCCn1cnc2c(N)ncnc21` registered a CC50 in the data set with HEL of 146 µM. The EC50 amounted to 74.3 µM in the data set on Human alphaherpesvirus 3 [2] and 69 µM in the data set on Human alphaherpesvirus 3 [3].

Regarding `Nc1nc(O)c2ncn(COC(CO)CO)c2n1` [GANCICLOVIR], the results for the CC50 (with HEL; in data set [4]) were 435 µM and greater than 394 µM, respectively. Moreover, the EC50 in the data set on Human alphaherpesvirus 2 is 0.027 µM; with Felid alphaherpesvirus 1, 8.1 µM; with Vaccinia virus, greater than 250 µM.

Consider `Nc1ncnc2c1ncn2CCOCP(=O)(O)OCCOCCCCCCCCC(O)CO` (centres undefined), for which the EC50 was 61.4 µM with Human alphaherpesvirus 3 [2] and no less than 72.7 µM with Human alphaherpesvirus 3 [3].

As to `NC(=O)c1ncn([C@@H]2O[C@H](CO)[C@@H](O)[C@H]2O)n1` [RIBAVIRIN], the CC50 at 72 h in the data set “in vitro” was greater than 250 µM. The EC50 was 3 µM in data set [5]; greater than 250 µM in the data set on Coxsackievirus B4 [6]; no less than 174 µM in [7]; greater than 250 µM in the data set with Sindbis virus; 9.8 µM in the data set on Influenza A virus [1].

Regarding `Nc1ncnc2c1ncn2CCOCP(=O)(OCCCCCCCCCCO)OCCCCCCCCCCO`, the EC50 in the data set with Human alphaherpesvirus 3 [2] is greater than 34 µM; with Human alphaherpesvirus 3 [3], greater than 34 µM; with Human betaherpesvirus 5 [8] it was greater than 34 µM; with Human betaherpesvirus 5 [9] it was greater than 34 µM; in data set [5], 99 µM; with Coxsackievirus B4 [6], greater than 34 µM. Moreover, the EC50 (in the data set on Human respirovirus 3; in data set [7]; in the data set on Sindbis virus; in the data set on Punta Toro virus) was greater than 34 µM each time.

Turning to `Nc1ncnc2c1ncn2CCOCP(=O)(O)OCCOCCCCCCCCCCO`, the EC50 in the data set with Human alphaherpesvirus 1 [10] turned out to be 122 µM; in the data set on Human alphaherpesvirus 2, 122 µM; in the data set on Human alphaherpesvirus 3 [2] it was 26 µM; in the data set on Human alphaherpesvirus 3 [3] it was 18.4 µM; in data set [11], 106 µM; in [12], 95 µM. Also, the EC50 with Influenza A virus [1], in the data set with Influenza A virus [13] and in the data set with Influenza B virus was greater than 42 µM in each case.

Consider `Nc1ncnc2c1ncn2CCOCP(=O)(O)O` [ADEFOVIR], for which the CC50 in the data set on HeLa was greater than 250 µM; with CCRF-CEM, 164 µM. Further, the EC50 in the data set on Human alphaherpesvirus 1 [14] amounted to 42.5 µM; with Human alphaherpesvirus 1 [10], 41.4 µM; in the data set with Human alphaherpesvirus 2, 24.9 µM; in the data set with Human alphaherpesvirus 3 [2], 6.7 µM; in the data set with Human alphaherpesvirus 3 [3], 5 µM; in the data set on Human betaherpesvirus 5 [8], 118 µM. Also, the EC50 in the data set on Human betaherpesvirus 5 [9] amounted to 115 µM; in data set [11], 10.4 µM; in [12], 8.6 µM; in [15], 1100 nM.

`CCOCCOCCOCCOCCOCCOCCOP(=O)(O)CO[C@H](CO)Cn1ccc(N)nc1=O`: the EC50 in the data set on Human alphaherpesvirus 1 [10] came out at 3.5 µM; in the data set on Human alphaherpesvirus 2, 1.4 µM; in the data set on Human betaherpesvirus 5 [8] it was 0.95 µM; with Felid alphaherpesvirus 1 it was 2.8 µM; with Vaccinia virus, 15.7 µM.

In turn, `Nc1ncnc2c1ncn2CCOCP(=O)(O)OCCOCCOCCOCCOCCOCCO` returned an EC50 in the data set on Human alphaherpesvirus 3 [3] of 40.9 µM.

With `Cc1oc(=O)oc1COP(=O)(O)COCCn1cnc2c(N)ncnc21`, the results for the CC50 in the data set with HEL and in the data set with CCRF-CEM were 117 µM and 88 µM, respectively. Besides, the EC50 was 51.9 µM in the data set with Human alphaherpesvirus 1 [14]; 51.9 µM in the data set with Human alphaherpesvirus 1 [10]; 98.6 µM in the data set on Human alphaherpesvirus 2; 1.92 µM in the data set with Human alphaherpesvirus 3 [2]; 7.6 µM with Human alphaherpesvirus 3 [3]; 10.6 µM in [11]. A half-maximal effect in data set [12] (EC50) was put at 9.3 µM.

Consider `CCCCCCCCCCCCCCOCCCOP(=O)(O)CO[C@H](CO)Cn1ccc(N)nc1=O`, for which the midpoint of the response with Human betaherpesvirus 5 [16], the EC50, lay at 0.002 µM.

The molecule `O=c1[nH]c(=O)n([C@H]2C[C@H](O)[C@@H](CO)O2)cc1/C=C/Br` [BRIVUDINE] came in with a CC50 in the data set with HEL of 470 µM. Besides, the EC50 was 274 µM in the data set with Human alphaherpesvirus 1 [10], 45.7 µM in the data set with Human alphaherpesvirus 2, 0.013 µM with Human alphaherpesvirus 3 [2] and no less than 105 µM with Human alphaherpesvirus 3 [3].

As for `CCCCCCCCCCCCCCCCOCCCOP(=O)(O)CO[C@H](CO)Cn1ccc(N)nc1=O` [BRINCIDOFOVIR], the EC50 in the data set with Human betaherpesvirus 5 [16] came out at 0.0009 µM.

In [15], `CCCCCCCCCCCCCCCCOCCCOP(=O)(O)COCCn1cnc2c(N)ncnc21` came in with an EC50 of 0.015 nM.

Take `Nc1ncnc2c1ncn2CCOCP(=O)(OCCOCCCCCCCCCCO)OCCOCCCCCCCCCCO`: the CC50 in the data set on HEL is 62.5 µM; in [4] it was greater than 148 µM; in the data set on HeLa it was 148 µM; in the data set on CCRF-CEM, 13.5 µM. Besides, the EC50 with Human alphaherpesvirus 1 [14], with Human alphaherpesvirus 1 [10], in the data set on Human alphaherpesvirus 2, in the data set with Human alphaherpesvirus 3 [2], with Human alphaherpesvirus 3 [3] and with Human betaherpesvirus 5 [8] was greater than 29.7 µM each time. Besides, the concentration giving a half-maximal response (EC50) (in the data set on Human betaherpesvirus 5 [9]; in the data set with Felid alphaherpesvirus 1; with Vaccinia virus; in [11]; in [12]; in [17]) was greater than 29.7 µM in each case. In addition, the EC50 (in [18]; in data set [5]; in the data set on Coxsackievirus B4 [19]; with Coxsackievirus B4 [6]; in the data set with Human respirovirus 3; in data set [7]) was greater than 29.7 µM throughout. Moreover, the EC50 with Sindbis virus is greater than 29.7 µM; with Punta Toro virus it was greater than 29.7 µM; with Feline coronavirus it was greater than 29.7 µM; with Influenza A virus [1], greater than 5.9 µM; with Influenza A virus [13], greater than 5.9 µM; with Influenza B virus, greater than 5.9 µM.

`Nc1nc2c(ncn2COCCO)c(=O)[nH]1` [ACYCLOVIR]: the CC50 in the data set with HEL is no less than 1420 µM. In the data set on Human alphaherpesvirus 3 [3], this molecule registered an EC50 of 69.3 µM.

For `Nc1ncnc2c1ncn2CCOCP(=O)(O)OCCCCCCCCC(O)CO` (centres undefined), the CC50 in data set [4] came to 9.4 µM. For the same molecule, the EC50 in the data set on Felid alphaherpesvirus 1 and in the data set on Feline coronavirus was greater than 9 µM in each case.

In the case of `Nc1ncnc2c1ncn2CCOCP(=O)(O)OCCCCCCCCCCO`, the figures for the EC50 with Human alphaherpesvirus 3 [2] and in the data set with Human alphaherpesvirus 3 [3] were 114 µM and 64.3 µM, respectively.

Regarding `Nc1ncnc2c1ncn2CCOCP(=O)(OCCCCCCCCC(O)CO)OCCCCCCCCC(O)CO` (centres undefined), the EC50 in the data set on Human alphaherpesvirus 3 [2] was 99 µM; in the data set with Human alphaherpesvirus 3 [3], 60.7 µM; in the data set on Influenza A virus [13], greater than 324 µM.

For the molecule `Nc1ccn(C[C@@H](CO)OCP(=O)(O)OCCOCCOCCOCCOCCOCCO)c(=O)n1`, the EC50 is 16.5 µM in the data set on Human alphaherpesvirus 1 [14]; 12.9 µM in the data set with Human alphaherpesvirus 1 [10]; 7.4 µM with Human alphaherpesvirus 2; 1.91 µM in the data set with Human alphaherpesvirus 3 [2]; 0.6 µM with Human alphaherpesvirus 3 [3]; 0.8 µM with Human betaherpesvirus 5 [8]. Moreover, the figures for the EC50 in the data set with Human betaherpesvirus 5 [9], in the data set with Felid alphaherpesvirus 1 and in the data set on Vaccinia virus were 0.7 µM, 14.5 µM and 107 µM, respectively.

For the molecule `Nc1ccn(C[C@@H](CO)OCP(=O)(O)O)c(=O)n1` [CIDOFOVIR], the CC50 with HEL amounted to 234 µM. Besides, the 50% effective concentration (EC50) with Human alphaherpesvirus 1 [14] came out at 1.6 µM; in the data set with Human alphaherpesvirus 2, 1.43 µM; in the data set with Human alphaherpesvirus 3 [2], 0.29 µM; with Human alphaherpesvirus 3 [3], 0.1 µM; in the data set with Human betaherpesvirus 5 [8], 0.92 µM; in the data set with Human betaherpesvirus 5 [9] it was 0.94 µM. The results for the EC50 with Vaccinia virus and in the data set on Human betaherpesvirus 5 [16] were 7 µM and 1.2 µM, respectively.

For the molecule `Nc1ncnc2c1ncn2CCOCP(=O)(OCCOCCCCCCCCC(O)CO)OCCOCCCCCCCCC(O)CO` (centres undefined), in the data set with Human betaherpesvirus 5 [8], the EC50 was greater than 28.3 µM.

The record behind these values is ChEMBL document CHEMBL1811861 (Bioorg Med Chem, 2011).
